Our source for the half-life, microsomal CLint and IC50 values is US12297171B2, “EP2 antagonist compounds” (Reservoir Neuroscience, Inc., priority 2021, dated 2025).

Series [1] in a line: Human liver microsome stability. It is filed as in vitro ADME. The settings on record: human liver microsomes 0.5 mg/mL, 37° C., 60 minutes; for half-life at 2 μM: read-out: T1/2 (microsomal); for microsomal CLint at 2 μM: read-out: in vitro CLint (microsomal). Here is the method:
The tested compound was incubated in duplicate with human liver microsomes (0.5 mg/mL) at 37° C. These incubations were carried out at a final test article concentration of 2 μM over a total incubation period of 60 minutes. Samples were taken at 0, 15, 30, 45 and 60 min and the reaction terminated by addition of 4 volumes of acetonitrile containing internal standard (100 nM alprazolam, 200 nM imipramine, 200 nM labetalol and 2 μM ketoprofen). Diclofenac was used as a positive control in this study. The samples were analyzed by UPLC-MS/MS to determine the concentration of the test compound and the percent remaining, intrinsic clearance (in vitro CLint) and half-life (t1/2) values were calculated.
Chromatographic analyses were performed on a Shimadzu UPLC apparatus (Kyoto, Japan) consisting of a gradient pump (model LC-30AD), an automatic injector (model HTC PAL System) and an on-line degasser (model DGU-20A5R). Detection was a triple quadrupole tandem mass spectrometer equipped with a turbo ion spray interface (API 4000/Triple Quad 4500/Triple Quad 5500/Triple Quad 6500). Data acquisition and integration were carried out with LC-MS software (Analyst 1.6) linked directly to the LC-MS/MS system. Chromatographic separations were achieved on a XSelect Hss T3 2.5μ (2.1×30 mm) Column. The mobile phase was 0.1% formic acid in water (A) and 0.1% formic acid in acetonitrile (B). The flow rate was 1.0 mL/min and column was maintained at 40° C.
Half-life (T1/2) data is measured in minutes, and in Table B2, in both microsomal and hepatic assays, the data is grouped into categories of: • A T1/2=1000+ • B T1/2=500 to 1000 • C T1/2=100 to 500 • D T1/2<100
In vitro clearance (CLint) data is measured in μL/min/mg prot, and in Table B2, in both microsomal and hepatic assays, the data is grouped into categories of: • A CLint<1 • B CLint=1 to 10 • C CLint=10 to 20 • D CLint=20+
A general note: Liver microsomes are a subcellular fraction often used to study metabolism.

A further series deals with T1, EP2 receptor (Homo sapiens, UniProt P43116).
T1 construct: expressed in transfected cells; host or cells: CHO-K1 cells (ATCC), transiently transfected with FuGENE 6
T1 sequence (P43116 whole entry): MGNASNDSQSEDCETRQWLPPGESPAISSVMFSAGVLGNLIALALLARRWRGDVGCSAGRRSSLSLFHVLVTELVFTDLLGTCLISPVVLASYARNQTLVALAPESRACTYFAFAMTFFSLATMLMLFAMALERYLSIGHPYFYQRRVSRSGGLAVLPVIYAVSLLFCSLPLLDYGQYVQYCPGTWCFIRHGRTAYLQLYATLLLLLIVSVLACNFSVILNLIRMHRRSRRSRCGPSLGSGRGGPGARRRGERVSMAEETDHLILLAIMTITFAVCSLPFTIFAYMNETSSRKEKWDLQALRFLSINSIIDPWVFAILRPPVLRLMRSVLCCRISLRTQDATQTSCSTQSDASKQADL
Briefly: EP2 potency assay (cAMP TR-FRET, LANCE Ultra cAMP kit, antagonism of prostaglandin E2 at EC80). The settings on record: CHO-K1 cells transfected with EP2 receptor. It is filed as cell-based. The procedure: Compound potency was measured using a cAMP TR-FRET assay.
CHO-K1 cells (ATCC) were seeded at a density of 9.75×10^5 in 6 cm plates, and then on the following day cell media was changed to Opti-Mem I reduced serum media (Gibco), and transfected with a plasmid for expression of the EP2 receptor (the target receptor of interest), using the FuGENE 6 Transfection reagent (Promega). After 6 hours incubation, the cell media was replaced with F12 medium supplemented with 10% FBS and 100 U/ml Pen-Strep. 24 hours after transfection, cells were harvested and seeded at a density of 3000 cells/well in a 384 well plate to perform the cAMP assay, using the LANCE Ultra cAMP assay kit (PerkinElmer).
For each test compound of interest, 10 nl/well of serially diluted test compound was added to each well, resulting in a range of 10 serially diluted compound concentrations from 10000 nM to 0.038 nM, with duplicate wells for each concentration. Plates were then centrifuged at 1000 rpm for 1 min, agitated at 600 rpm at R.T. for 2 min, and incubated at 25° C. for 5 min. The reference agonist, prostaglandin E2 (MCE), was added to each well at the appropriate concentration to reach its EC80 value. Plates were then centrifuged at 1000 rpm for 1 min, agitated at 600 rpm at R.T. for 2 min, and incubated at 25° C. for 30 min.
To measure levels of cAMP, 5 μl/well of Eu-cAMP working solution and 5 μl/well of Ulight-anti-cAMP working solution were added to each well, and plate was centrifuged at 1000 rpm for 1 min, agitated at 600 rpm at R.T. for 2 min, and incubated at 25° C. for 15 min. Levels of TR-FRET fluorescence were measured in each well using an EnVision microplate reader (excitation wavelength=337 nm and emission wavelength=615 and 665 nm). A dose-response curve was prepared by plotting percent inhibition for each compound concentration, and then IC50 was calculated by fitting a curve to the plotted values and extrapolating the IC50 concentration.
Potency data is grouped into categories of AA (IC50<100 nM); A (IC50=100 to 500 nM); B (IC50=500 nM to 1 μM); C (IC50=1 μM to 5 μM); and D (IC50>5 μM).
(In general: Time-resolved FRET reads energy transfer from a long-lived donor to a nearby acceptor.)

The term microsomal CLint denotes the capacity of the preparation to metabolise the compound, expressed as a volume cleared per time. What is called IC50 is the point on the concentration scale where inhibition reaches its midpoint. Low readings indicate greater potency in that assay, high ones weaker potency in that assay. In the case of `COc1ccc(C(=O)N2CCC(COc3ccc(-c4ccc(C#N)cc4)cc3)(n3nn[nH]c3=O)C2)cc1` (racemic) [Compound 2-2, 4′-((1-(4-methoxybenzoyl)-3-(5-oxo-4,5-dihydro-1H-tetrazol-1-yl)pyrrolidin-3-yl)methoxy)-[1,1′-biphenyl]-4-carbonitrile], in series [1], the half-life at 2 μM was in the range of 8.33 to 16.7 h and the microsomal CLint at 2 μM fell in the range of 1 to 10 µL/min/mg. Moreover, at EP2 receptor, the IC50 lay in the range of 0.5 to 1 µM. With `COc1ccc(C(=O)N2CCC(C#N)(COc3ccc(-c4ccc(C#N)cc4)cc3)C2)cc1` (racemic) [Compound 2-3, 3-(((4′-cyano-[1,1′-biphenyl]-4-yl)oxy)methyl)-1-(4-methoxybenzoyl)pyrrolidine-3-carbonitrile], in series [1], the half-life at 2 μM was < 1.67 h and the intrinsic clearance (microsomal CLint) at 2 μM was > 20 µL/min/mg. As to `COc1ccc2cc(OCC3(n4nn[nH]c4=O)CN(C(=O)c4ccc(F)cc4)C3)ccc2c1` [Compound 1-2, 1-(1-(4-fluorobenzoyl)-3-(((6-methoxynaphthalen-2-yl)oxy)methyl)azetidin-3-yl)-1,4-dihydro-5H-tetrazol-5-one], in series [1], the half-life at 2 μM is 1.67 to 8.33 h and the microsomal CLint at 2 μM fell in the range of 1 to 10 µL/min/mg. As for `COc1ccc2cc(OCC3(C#N)CN(C(=O)c4ccc(F)cc4)C3)ccc2c1` [Compound 1-3, 1-(4-fluorobenzoyl)-3-(((6-methoxynaphthalen-2-yl)oxy)methyl)azetidine-3-carbonitrile], in series [1], the half-life at 2 μM is < 1.67 h and the microsomal CLint at 2 μM was > 20 µL/min/mg. Take `COc1ccc(C(N2CCC(COc3ccc(-c4ccc(C#N)cc4)cc3)(C(=O)O)C2)C(F)(F)F)cc1` (stereo not drawn) [Compound 4-1, 3-[({4′-cyano-[1,1′-biphenyl]-4-yl}oxy)methyl]-1-[2,2,2-trifluoro-1-(4-methoxyphenyl)ethyl]pyrrolidine-3-carboxylic acid; trifluoroacetic acid]: the IC50 on EP2 receptor is > 5 µM. With `COc1ccc(C(=O)N2CCC(COc3ccc(-c4ccc(C#N)cc4)cc3)(C(=O)NO)C2)cc1` (stereo not drawn) [Compound 4-13, 3-(((4′-cyano-[1,1′-biphenyl]-4-yl)oxy)methyl)-N-hydroxy-1-(4-methoxybenzoyl)pyrrolidine-3-carboxamide], the half-inhibitory concentration (IC50) against EP2 receptor lay within 1 to 5 µM. Take `COc1ccc(C(=O)N2CCC(COc3ccc(-c4ccc(C#N)cc4)cc3)(c3cc[nH]c(=O)c3)C2)cc1` (stereo not drawn) [Compound 4-16, 4′-{[1-(4-methoxybenzoyl)-3-(2-oxo-1H-pyridin-4-yl)pyrrolidin-3-yl]methoxy}-[1,1′-biphenyl]-4-carbonitrile]: the IC50 on EP2 receptor is > 5 µM. Same read-out and setting: in the case of `COc1ccc(C(=O)N2CCC(COc3ccc(-c4ccc(C#N)cc4)cc3)(C(=O)NCC(F)(F)F)C2)cc1` (stereo not drawn) [Compound 4-20, 3-(((4′-cyano-[1,1′-biphenyl]-4-yl)oxy)methyl)-1-(4-methoxybenzoyl)-N-(2,2,2-trifluoroethyl)pyrrolidine-3-carboxamide] it was > 5 µM. The compound `COc1ccc(C(=O)N2CCC(COc3ccc(-c4ccc(C#N)cc4)cc3)(C(=O)NC#N)C2)cc1` (stereo not drawn) [Compound 4-21, N-cyano-3-(((4′-cyano-[1,1′-biphenyl]-4-yl)oxy)methyl)-1-(4-methoxybenzoyl)pyrrolidine-3-carboxamide] showed a half-inhibitory concentration (IC50) against EP2 receptor of 1 to 5 µM. With `COc1ccc(C(=O)N2CCC(COc3ccc(-c4ccc(C#N)cc4)cc3)(C(=O)N(C)O)C2)cc1` (stereo not drawn) [Compound 4-22, 3-(((4′-cyano-[1,1′-biphenyl]-4-yl)oxy)methyl)-N-hydroxy-1-(4-methoxybenzoyl)-N-methylpyrrolidine-3-carboxamide], the half-maximal inhibitory concentration (IC50) on EP2 receptor fell in the range of 1 to 5 µM.

Regarding `CONC(=O)C1(COc2ccc(-c3ccc(C#N)cc3)cc2)CCN(C(=O)c2ccc(OC)cc2)C1` (stereo not drawn) [Compound 4-23, 3-(((4′-cyano-[1,1′-biphenyl]-4-yl)oxy)methyl)-N-methoxy-1-(4-methoxybenzoyl)pyrrolidine-3-carboxamide], on EP2 receptor, the concentration for half-maximal inhibition (IC50) is > 5 µM. Same read-out and setting: then `CCS(=O)(=O)NC(=O)C1(COc2ccc(-c3ccc(C#N)cc3)cc2)CCN(C(=O)c2ccc(OC)cc2)C1` (stereo not drawn) [Compound 4-25, 3-[({4′-cyano-[1,1′-biphenyl]-4-yl}oxy)methyl]-N-(ethanesulfonyl)-1-(4-methoxybenzoyl)pyrrolidine-3-carboxamide], with 0.5 to 1 µM; and `COc1ccc(C(=O)N2CCC(COc3ccc(-c4ccc(C#N)cc4)cc3)(C(=O)NS(=O)(=O)CC(F)(F)F)C2)cc1` (stereo not drawn) [Compound 4-26, 3-[({4′-cyano-[1,1′-biphenyl]-4-yl}oxy)methyl]-1-(4-methoxybenzoyl)-N-(2,2,2-trifluoroethanesulfonyl)pyrrolidine-3-carboxamide], with 1 to 5 µM.

Turning to `COCS(=O)(=O)NC(=O)C1(COc2ccc(-c3ccc(C#N)cc3)cc2)CCN(C(=O)c2ccc(OC)cc2)C1` (stereo not drawn) [Compound 4-27, 3-[({4′-cyano-[1,1′-biphenyl]-4-yl}oxy)methyl]-1-(4-methoxybenzoyl)-N-methoxymethanesulfonylpyrrolidine-3-carboxamide], the IC50 against EP2 receptor was in the range of 0.1 to 0.5 µM. `COc1ccc(C(=O)N2CCC(COc3ccc(-c4ccc(C#N)cc4)cc3)(C(=O)NS(=O)(=O)C(C)C)C2)cc1` (stereo not drawn) [Compound 4-28, 3-[({4′-cyano-[1,1′-biphenyl]-4-yl}oxy)methyl]-1-(4-methoxybenzoyl)-N-(propane-2-sulfonyl)pyrrolidine-3-carboxamide] displayed a half-inhibitory concentration (IC50) against EP2 receptor of 0.5 to 1 µM. The same measure, in the same setting: in the case of `COc1ccc(C(=O)N2CCC(COc3ccc(-c4ccc(C#N)cc4)cc3)(C(=O)NS(=O)(=O)C(C)(C)C)C2)cc1` (stereo not drawn) [Compound 4-29, 3-[({4′-cyano-[1,1′-biphenyl]-4-yl}oxy)methyl]-1-(4-methoxybenzoyl)-N-(2-methylpropane-2-sulfonyl)pyrrolidine-3-carboxamide] it was > 5 µM; in that of `COc1ccc(C(=O)N2CCC(COc3ccc(-c4ccc(C#N)cc4)cc3)(C(=O)NS(=O)(=O)C3CC3)C2)cc1` (stereo not drawn) [Compound 4-30, 3-[({4′-cyano-[1,1′-biphenyl]-4-yl}oxy)methyl]-N-(cyclopropanesulfonyl)-1-(4-methoxybenzoyl)pyrrolidine-3-carboxamide], 1 to 5 µM; in that of `COc1ccc(C(=O)N2CCC(COc3ccc(-c4ccc(C#N)cc4)cc3)(C(=O)NS(=O)(=O)c3ccccc3)C2)cc1` (stereo not drawn) [Compound 4-31, N-(benzenesulfonyl)-3-[({4′-cyano-[1,1′-biphenyl]-4-yl}oxy)methyl]-1-(4-methoxybenzoyl)pyrrolidine-3-carboxamide], > 5 µM. On to `N#Cc1ccc(-c2ccc(OCC3(C(=O)O)CCN(C(c4ccc(Br)cc4)C(F)(F)F)C3)cc2)cc1` (stereo not drawn) [Compound 4-34, 1-[1-(4-bromophenyl)-2,2,2-trifluoroethyl]-3-[({4′-cyano-[1,1′-biphenyl]-4-yl}oxy)methyl]pyrrolidine-3-carboxylic acid], for which the IC50 at EP2 receptor is > 5 µM.
